Entries after “also recorded” stand apart in the source; their conditions may differ.
What was measured:
[1] = test system: THP-1 cells; assay: Western blotting of ARE proteins in THP-1 monocytes and macrophages; type: cell-based, human; details: THP-1 macrophages; 3 mM RRx-001 16 hours
Procedure: (§1) Expression of ARE proteins was assayed in hMSC, macrophages, and monocytes following in vitro irradiation of the cells, which were pretreated with RRx-001 or vehicle. Protein expression was assayed by Western blotting and protein quantification.
(§2) hMSC were treated for 16 hours with […] RRx-001 or the vehicle control (0.05% DMSO), irradiated at 10 Gy or sham-irradiated and the protein collected 8 or 24 hours post-sham or irradiation. Human monocytic leukemic THP-1 and U937 cells were differentiated into macrophages with 50 nM Phorbol 12-myristate 13-acetate (PMA) for 24 hours before treatment. Differentiated and non-differentiated cells were treated with […] RRx-001 or 0.05% DMSO (vehicle control) for 16 hours prior to radiation. The cells were irradiated at 5 Gy or sham-irradiated and collected 4-8 hours later for both analysis. For each experiment, duplicates of each sample were run.

[2] = test system: bone marrow; assay: Histopathological analysis of bone marrow sternebrae (cellularity grade, megakaryocytes) after sublethal TBI or sham irradiation; type: in vivo, mice
Procedure: To determine the pathophysiological effects of RRx-001 on hematopoietic protection in mice, CD2F1 male mice were treated with 10 mg/kg RRx-001 or the vehicle control 24 hours prior to a sublethal dose of TBI (7 Gy at 0.6 Gy/min using High-level Cobalt-60) or sham irradiation (day 0) according to the table below.
CD2F1 male mice (n=3/group) were divided into 4 experimental groups: 1) irradiation+vehicle, 2) irradiation+RRx-001, 3) sham-irradiation+vehicle and 4) sham-irradiation+RRx-001. Either 10 mg/kg RRx-001 or the vehicle control were IP injected 24 hours prior to either irradiation or sham-irradiation (day 0). On days 2, 7, 14, 21, and 28 post-irradiation (day 0) mice were humanely euthanized. Blood, bone marrow, and sternebrae were then collected. This experiment was performed in duplicate for a total of n=6 mice/group/time point.
Sternebrae from euthanized mice (n=6/group/time point) were collected on days 2, 7, 14, 21 and 28 post-irradiation. Sternebrae were fixed in 10% zinc-buffered formalin for at least 24 hours and up to 7 days. Fixed sternebrae were decalcified for 3 hr in 12-18% sodium EDTA (pH 7.4-7.5) and specimens dehydrated using graded ethanol concentrations and embedded in paraffin. Longitudinal 4 μm sections were stained with regular hematoxylin and eosin. Two board-certified pathologist conducted histopathological evaluation of the samples. One of the pathologist scored all the samples blindly. Bone marrow was evaluated in situ within sternebrae and graded (Grade 1: <10%; Grade 2: 11-30%; Grade 3: 31-60%; Grade 4: 61-89%; Grade 5: >90%) for total cellularity. Megakaryocytes were also quantified based on the average per 10 high power fields (HPF) at 400× magnification using a BX43 or BX53 microscope (Olympus, Minneapolis, MN). Images were captured with an Olympus DP22 camera and imported into Olympus Cellsens Standard software for review.
Blood parameters were compared between treatment groups using an analysis of variance (ANOVA). The Wilcoxon test was also used for sensitivity and to potentially address data departures from normality. A longitudinal mixed model repeated measures was also implemented to provide a more complete data analysis of the sham-irradiated treatment groups' difference in overall time profile mean based on the blood parameters. Bone marrow data (megakaryocytes and grade) statistical analysis was carried out using a parametric test consisting of a general linear model analysis of variance (ANOVA with factors consisting of treatment group and pathologist) and the Kruskal-Wallis nonparametric test. The statistical data analysis was carried out using R software (Version 3.4.3, 2016) and the graphs made using GraphPad Prism version 7.03 (GraphPad Software, La Jolla, CA).
To determine the effect of RRx-001 on bone marrow, a histopathological analysis of bone marrow sternebrae was performed and the cellularity, as reported by grade (grade 1: <10%; grade 2: 11-30%; grade 3: 31-60%; grade 4: 61-89%; grade 5: ≥90% cellularity), and megakaryocyte numbers (averaged per 10 high-powered fields; HPF) were ascertained by two pathologists, one of which scored all the samples blindly (TAS, WEC).

[3] = test system: human normal bone marrow mesenchymal stem cells (hMSC); assay: Western blotting of antioxidant response element (ARE) proteins in irradiated hMSC; type: cell-based; details: 5 mM RRx-001 16 hours
Procedure: Antioxidant response element (ARE) genes such as heme oxygenase 1 (HO-1), NAD(P)H Dehydrogenase [Quinone] 1 (NQO-1) and Superoxide Dismutase (SOD) are involved in the detoxification and elimination of reactive oxidants.
as §1, §2

[4] = test system: Nrf2; details: tumor cells exposed to RRx-001; Ning et al., Oncotarget 2015; cited from earlier work
[5] = test system: THP-1 cells; assay: Cytokine array of irradiated THP-1 monocytes and macrophages; type: cell-based, human
Procedure: A cytokine array was employed to examine cytokine expression following in vitro irradiation of human monocytic leukemic THP-1 cells. THP-1 cells were differentiated into macrophages with 50 nM Phorbol 12-myristate 13-acetate (PMA) for 24 hours before treatment. Differentiated and non-differentiated cells were treated with […] RRx-001 or 0.05% DMSO (vehicle control) for 16 hours prior to radiation. The cells were irradiated at 5 Gy or sham-irradiated and collected 4-8 hours later for both analysis. For the cytokine analysis, cell media was collected and blotted onto Proteome Profiler Human Cytokine Arrays (R&D Systems, Inc.) according to the manufacturer's protocol.

[6] = test system: superoxide dismutase; assay: Superoxide dismutase activity assay in hMSC; type: cell-based, human; details: 5 mM RRx-001 16 hours; 8 hours after 10 Gy irradiation
Procedure: The activity of superoxide dismutase activity was also assayed in hMSC. hMSC were treated for 16 hours with […] RRx-001 or vehicle, irradiated at 10 Gy or sham-irradiated and whole cell homogenate collected according to the manufacture's protocol. The assay measures the activity of all three forms of SOD. The amount of SOD activity (U/mL) was normalized to protein levels.

O=C(CBr)N1CC([N+](=O)[O-])([N+](=O)[O-])C1 [RRx-001, 2-bromo-1-(3,3-dinitroazetidin-1-yl)ethan-1-one]
HO-1 expression [1]: no significant increase in HO-1 | bone marrow cellularity compared to the vehicle control ([2]; 7 Gy TBI, 10 mg/kg IP 24 h before, day 7): slight increase in cellularity | hematopoietic recovery by grade of bone marrow cellularity compared with control ([2]; 7 Gy TBI, 10 mg/kg IP 24 h before, day 14, 10 mg/kg): significantly accelerated hematopoietic recovery; also recorded: significant increase in bone marrow cellularity | number of megakaryocytes ([2]; 7 Gy TBI, 10 mg/kg, between days 7-28): steady increase | number of megakaryocytes ([2]; 7 Gy TBI, 10 mg/kg, day 2): reduced | number of megakaryocytes ([2]; 7 Gy TBI, 10 mg/kg, day 7): severely depleted | bone marrow cellularity grade ([2]; after 7 Gy TBI, 10 mg/kg IP 24 h before): 1 (grade 1: <10%) | SOD1 and 2 expression ([3]; 10 Gy irradiation, 8 hours): slight increase | HO-1 expression increase ([3]; 24 hours post-sham or irradiation): 2-3.5 fold | NQO-1 expression ([3]; all groups): slightly reduced | HO-1 expression increase ([3]; sham and 10 Gy irradiated groups, 8 hours post-sham or irradiation): 22-26 fold | nuclear presence of transcription factor Nrf2 [4]: increased nuclear presence | cytokines involved in inflammation ([5]; THP-1 macrophage fraction, sham and 5 Gy irradiated, 3 mM RRx-001 16 hours): reduction in cytokines involved in inflammation | pro-inflammatory chemokine IL-8 ([5]; THP-1 macrophages): reduction | CCL5/RANTES expression ([5]; THP-1 monocytes, 3 mM RRx-001 16 hours): induction; also recorded: upregulation | Superoxide Dismutase Activity [6]: did not increase
